# Source: patent US20090188860A1, “Use of antimicrobials in water technology” (priority 2006, published 2009)
# Test system: bacteria
# Experiment: bacterial presence in permeate and on membrane of a reverse osmosis module in a desalination process
# Conditions: cellulose acetate membranes cast with 0.5% and 2.0% by weight of the antimicrobial agent, after a one month period of operation
# Procedure: Cellulose acetate membranes were cast from a dope solution containing about 20% of a cellulose di- and -tri-acetate mixture and 0.5% and 2.0% by weight, respectively, of the antimicrobial agent of formula (3). The solvent is a mixture of dioxane and acetone (2:1; w/w).
# Further, the cellulose acetate membranes were used in a reverse osmosis module in a desalination process.
# The reverse osmosis module was tested to determine any bacterial presence in the permeate.
smiles,measurement,value
"Oc1cc(Cl)ccc1Oc1ccc(Cl)cc1 [formula (3), 4,4′-dichloro-2-hydroxydiphenylether]",bacterial presence in the permeate and on the membrane,no bacteria could be found
